Like-named read-outs stand apart in the source and are kept apart here.
Columns and labels:
HIV-1 [1] = conditions: for interaction with Q-GRFT against HIV-1: in free and encapsulated forms
HIV-1 [2] = conditions: NPs or eluates from 20% w/w NP-EF composites
Protocol: TZM-bl cells, obtained from the National Institutes of Health AIDS Research and Reference Reagent Program (ARRRP), are engineered HeLa cells that express CD4, CCR5 and CXCR4 receptors, and were used to assess in vitro HIV-1 infectivity. TZM-bl cells are highly permissive to infection by most HIV-1 and pseudovirus strains, and contain HIV-activated Tat-driven luciferase, allowing for precise quantification of infection. TZM-bl cells were cultured in Dulbecco's Modified Eagle medium (DMEM) containing 10% fetal bovine serum (FBS), 25 mM HEPES, and 50 μg/mL gentamicin (Thermo Fisher). […]
HIV inhibition was determined as a function of reduction in luciferase reporter gene expression after a single round of infection with pseudotyped HIV in TZM-bl cells. The optimal virus dilution (1:16) was established to yield ≥96,800 relative luminescence units (RLUs). […]
After 48 hr, 100 μL of culture medium was removed from each well. Luminescence was measured using the Bright-Glo luciferase assay (Promega Corporation, Madison, Wis.) by adding 100 μL Bright-Glo reagent solution to each well for 5 min and recording relative luminescence units (RLUs, Synergy HT reader, BioTek). […]

HSV-2 [3] = test: In vivo HSV-2 efficacy, murine model of lethal HSV-2 infection (GRFT NPs and NP-EFs, Example 4); set-up: species or system BALB/c mice
Protocol: All in vivo experiments were approved by the University of Louisville's Institutional Animal Care and Use Committee (IACUC-17135) prior to testing. […] For these studies, mice were subcutaneously injected with 3 mg Depo-Provera (Revive, Madison, N.J.) 5 days prior to vehicle administration to induce the diestrous stage of their cycle. All materials administered to mice were UV-sterilized for 15 s prior to use. […] Untreated/uninfected mice and mice treated with 20 μg free GRFT (20 μL of 1,000 μg/mL) served as negative controls of infection, while untreated/infected mice served as a positive control for infection. Blank mPEG-PLGA nanoparticles were administered as an additional control group in efficacy studies.

HSV-2 [4] = test: In vitro HSV-2 plaque assay in Vero E6 cells (GRFT fibers, Example 5); assay type: cell-based, HSV-2 (4674); conditions: eluates of 10% w/w GRFT fibers; 1 hr prior to infection
Protocol: To conduct HSV-2 plaque assays, Vero E6 cells and HSV-2 (4674) were kindly provided by Dr. Kenneth Palmer from the University of Louisville.
HSV-2 plaque assays were conducted to evaluate the in vitro efficacy of 10% w/w GRFT fibers against HSV-2 infection as previously described. Briefly, Vero E6 cells were seeded at 600,000 cells/well in a 6-well flat bottom plate (50% confluence) and grown for 24 hr to confluence. Prior to cell infection, 10% w/w GRFT fibers (30 mg) were dissolved in 20 mL complete plating media (1% FBS MEM). Once the cells were fully confluent, the growth media was removed and replaced with 2 mL of GRFT fiber eluate dilutions, followed by HSV-2 infection (3,000 PFU per well) 1 hr later. Free GRFT (2,000 μg/mL), corresponding to the concentration necessary to provide complete HSV-2 inhibition, was used as a positive control for inhibition, in addition to untreated/uninfected cells. Untreated/infected cells, were used as a negative control of inhibition.
Subsequent to HSV-2 infection, plates were incubated for 48 hr at 37° C., all media was removed, and cells were fixed with 1.5 mL methanol for 10 min. […] Finally, plates were washed with Milli-Q water, and plaques were counted after drying. […] Samples were analyzed in triplicate, and GraphPad Prism software was used to determine and compare the IC50 values of GRFT fibers to free GRFT.

HIV-1 [5] = conditions: eluates of 1% w/w GRFT fibers
Excerpt: TZM-bl cells, obtained from the National Institutes of Health (NIH) AIDS Research and Reference Reagent Program (ARRRP), were used to assess in vitro HIV-1 infectivity. TZM-bl cells are engineered HeLa cells that express CD4, CCR5 and CXCR4 receptors and contain a Tat-driven luciferase gene, which is activated by HIV-1 infection and permits sensitive and accurate measurements of infection. TZM-bl cells are highly permissive to infection by most strains of HIV and molecularly cloned Env-pseudotyped viruses. TZM-bl cells were cultured in DMEM containing 10% FBS, 25 mM HEPES, and 50 μg/mL gentamicin. […]
The antiviral activity of GRFT fibers against HIV-1 was measured using an in vitro HIV-1 pseudovirus inhibition assay. As previously described, HIV-1 inhibition was determined as a function of reduction in luciferase reporter gene expression after a single round of infection in TZM-bl cells. The optimal virus dilution was established prior to the experiments to yield 100,000 relative luminescence units (RLUs). […]
After 48 hr, 100 μL, culture medium was carefully removed from each well. Luminescence was measured using the Bright-Glo luciferase assay system (Promega Corporation, Madison, Wis.) by adding 100 μL, Bright-Glo reagent solution to each well for 5 min. Plates were read via luminescence by the Synergy HT reader (BioTek). […]

HSV-2 [6] = test: In vivo efficacy against a lethal dose of HSV-2 infection (GRFT fibers, Example 5); set-up: species or system BALB/c mice
Protocol: All in vivo experimental procedures were approved by the University of Louisville's Institutional Animal Care and Use Committee (IACUC 17135) prior to testing. All animal studies were conducted using 5-week-old female BALB/c mice (Jackson Laboratory, Bar Harbor, Me.) to evaluate the efficacy and safety of GRFT fibers. For efficacy studies, mice were administered either blank or GRFT fibers (5 mg) that were UV-sterilized for 15 s. Mice were subcutaneously injected with 3 mg Depo-Provera (Revive, Madison, N.J.) to induce the diestrous stage of their cycle, 5 days prior to fiber administration.
To determine the efficacy of GRFT fibers against HSV-2 infection, mice were administered a single dose of either GRFT PEO, PVA, or PVP fibers, or control groups (n=20). Twenty-four hours after fiber administration, mice were challenged with HSV-2 (20 μL, LD90 5,000 PFU). Untreated/infected mice were used as positive controls for infection, while untreated/uninfected mice and infected mice treated with free GRFT (20 μL, of 1,000 μg/mL, 20 μg GRFT) served as negative controls. […] Blank PEO fibers were administered as an additional control group in efficacy studies. Mice were monitored daily for 14 days after HSV-2 challenge using an established 4-point scale to monitor the progression of viral infection. Each day, mice were weighed and examined for signs of neurological and epithelial damage. […]

[7] = Met78Gln variant versus wild-type GRFT; cited from earlier work
Gardnerella vaginalis = test: Probiotic - Gv liquid co-culture; assay type: cell-based; conditions: Example 2; free probiotic (10e7 or 10e8), prebiotic and Gv; plated after 4 and 24 hours
Protocol: Bacteria loading, viability, and stability were tested by CFU count, BacLight live/dead assay, and fluorescence microscopy. La viability and stability were evaluated at −20° C., 4° C., and 25° C. by counting colony forming units (CFUs). To determine the ability of probiotic EFs to decrease Gv viability, a La EF-Gv co-culture was assessed.
Bacteria were co-cultured in media using the following experimental design (FIG. 16A). The probiotic (L. acidophilus (La) or L. crispatus (Lcr)), the prebiotic, and the Gv were combined for bacterial cell co-culture experiments. Each tube was serially diluted and plated after 4 (FIG. 16B) and 24 (FIG. 16C) hours growth.

## Cc1cc(C)c(Nc2ccnc(Nc3ccc(C#N)cc3)n2)c(C)c1 [DAP, Dapivirine]
HIV-1 [1]
  interaction with Q-GRFT against HIV-1: synergistic interactions

## Cc1nnc(C(=O)NC(C)(C)c2nc(C(=O)NCc3ccc(F)cc3)c(O)c(=O)n2C)o1 [RAL, Raltegravir]
HIV-1 [1]
  interaction with Q-GRFT against HIV-1: synergistic interactions

## C[C@H](Cn1cnc2c(N)ncnc21)OCP(=O)(O)O [TFV, Tenofovir]
HIV-1 [1]
  interaction with Q-GRFT against HIV-1: synergistic interactions

## Griffithsin [free GRFT]
HIV-1 [2]; administered to TZM-bl cells 1 hr prior to infection
  IC50 against HIV-1: 0.0215 ± 0.0053 mg/L
HIV-1 [2]; administered to TZM-bl cells 24 hr prior to infection
  IC50 against HIV-1: 0.0208 ± 0.0067 mg/L
HSV-2 [3]; intravaginal, single HSV-2 challenge LD90 5,000 PFU 24 hr later, 14 d post-infection, n=20
  survivability: 85%
HSV-2 [3]; treated mice that became symptomatic, relative to untreated/infected control group
  onset of symptoms and progression of infection: delayed onset of symptoms and a more gradual progression of infection
HSV-2 [4]
  1 Hr HSV-2 IC50: 25.5 ± 0.5 mg/L
HIV-1 [5]; 1 hr prior to infection
  1 Hr HIV-1 IC50: 0.0241 ± 0.0156 mg/L
HIV-1 [5]; 24 hr prior to infection
  24 Hr HIV-1 IC50: 0.0228 ± 0.0122 mg/L
HSV-2 [6]; mice that exhibited symptoms, relative to untreated/infected mice
  progression of infection: decreased progression of infection
HSV-2 [6]; of 20 mice
  infected mice whose initial symptoms disappeared near the end of the study: 1 of 20

## free Q-GRFT: oxidation-resistant variant of GRFT in which the Met at position 78 was replaced by a Gln
HIV-1 [1]; in combination with the free ARVs (TFV, RAL, DAP)
  fold lowering of IC50 of free Q-GRFT: up to 6 fold
[7]
  susceptibility to oxidation: no susceptibility to oxidation

## inulin
Gardnerella vaginalis
  effect on Gv growth in probiotic-prebiotic-Gv co-culture: increase of Gv growth
